Measurements reported in patent US12516038B2, “Inhibitors of antigen presentation by HLA-DR” (Janssen Pharmaceutica NV, priority 2020, dated 2026).

Key:
[1] = tested on: HLA-DR4 restricted mouse T cell hybridoma line (DR4.CII.36.8) with HLA-DRB1*04:01-expressing Boleth cells; experiment: HLA-DR4-restricted peptide-specific T cell-based assay (hybridoma assay); settings: Mus musculus, T-cell, 6 h, inhibition of IL-2 production, CII259-273 peptide presented by Boleth cells
From the text: (§1) The screening was made through two sets of HLA-DR/peptide-dependent assays: a peptide-dependent Homogeneous Time Resolved Fluorescence (HTRF) binding assay followed by an HLA-DR dependent, peptide-specific T cell functional assay (HLA-DR4-restricted peptide-specific T cell-based assay hybridoma assay). The HTRF binding assay was designed to measure the ability of the small molecule to inhibit the loading of a fluorescently labeled high-affinity peptide onto HLA-DR peptide binding groove. The peptide-specific T cell functional assay assesses T cell activation resulting from proper peptide presentation onto HLA-DR expressed on the surface of the antigen-presenting cells to the T cell and is used to screen compounds able to inhibit such HLA-DR/peptide-dependent T cell activation.
HLA-DR4-Restricted Peptide-Specific T Cell-Based Assay (Hybridoma Assay)
The hybridoma assay was used to measure compound inhibition of TL-2 production from an HLA-DR4 restricted mouse T cell hybridoma line (DR4.CII.36.8) that was antigen-specific for collagen II259-273 (CII259-273) peptide when presented with an HLA-DR4 expressing Antigen Presenting Cell (APC) cell line (i.e., Boleth).
To the HLA-DRB1*04:01-expressing B cell line (Boleth cell line from International Histocompatibility Working Group (IHWG), ref #IHW09031) was presented the collagen II 259-273 peptide (CII259-273, GIAGFKGEQGPKGEP) to mouse T cell hybridoma (DR4.CII.36.8 T cell hybridoma; clone 36.8, expressing a CII259-273-specific, HLA-DRB1*04:01-restricted T cell receptor). Upon proper CII259-273 peptide presentation, the T cell hybridoma was activated and thus produced IL-2 cytokine, whose level in the cell culture supernatant was detected using mouse IL-2 AlphaLISA kit (Perkin Elmer, Cat: AL511F).
This assay was performed in a 384-well plate (polypropylene V-bottom Greiner bio-one, ref #784075) by: (i) pre-incubation of 20 μL of 1.25 million/mL Boleth cells (25,000 cells) resuspended in DMEM/1% fetal calf serum (FCS; Gibco, ref #16140-071) with 20 μL of 2.5× final concentration of compound of interest in DMEM/1% serum/0.75% DMSO at 37° C. for 1 hr in the incubator, then (ii) 10 μL of 5 million/mL (50,000 cells) DR4.CII.36.8 T cell hybridoma cells resuspended in DMEM/1% FCS was added and incubated for 6 h at 37° C. in the incubator. Supernatant was then collected and mouse IL-2 detected using AlphaLISA kit (ref #AL511F). Compounds were tested in duplicate, with 8-point titration. Mean±SD of AlphaLISA units at each compound concentration was used for compound IC50 calculation. The negative control for this experiment was run without peptide stimulation and used a DMSO vehicle wherein no compound of interest was added. The positive control was run with peptide stimulation and used a DMSO vehicle wherein no compound of interest was added. Both the negative and positive controls were run in 8 replicates each. Curve fitting and IC50 calculation for dose response data was performed by GraphPad software 6 or higher (GraphPad Software, San Diego, CA). Dose response data was plotted versus the log of compound concentration and IC50 was determined using 4-parameter logistic (4-PL) curve fitting.

HLA-DRB1*0401 = HLA-DRB1*0401 (Homo sapiens (Human), UniProt P01903+P01911, A100K/A169T/DEL228-266/F76Y/I96L/K127E/L162R/M171V/N62H/P40V/Q125Y/R42H/S133A/S149N/S66Y/V115G/V209L/W38E); experiment: HLA-DR4 HTRF assay; format: binding; settings: inhibition of loading of Alexa Fluor 647-labeled Cit-CII peptide onto HLA-DR4 (CLIP cleaved)
From the text: as §1
The HLA-DR4 HTRF assay is based on HTRF technology and designed to measure ability of compounds to prevent loading of high-affinity Alexa Fluor 647-labeled Citrullinated Collagen 111236-1249 peptide (named Cit-CII/AF647, aa1236-1249, LQYM-Cit-ADQAAGGLR; Alexa Fluor 647 dye commercially available from Invitrogen) onto HLA-DRB1*0401. The HTRF assay technology is based on the energy transfer between two fluorophores, a donor and an acceptor, when in close proximity. The HLA-DR4 protein construct was uniquely designed for this assay and has (i) the α and […] subunits fused to human Fc chains and (ii) the invariant chain-associated peptide (CLIP peptide, aa85-101), the universal moderate/low-affinity HLA-DR binder, attached to the beta chain through a HRV3C protease-cleavable linker.
Because of the low stability of peptide free HLA-DR4 heterodimer, the construct was purified and delivered with CLIP peptide attached to the N-terminal of the β chain. The HLA-DR4 heterodimer was pre-treated with 3 μL HRV3C protease (Novagen E71493-3) (˜2 U/μL) per mg of the cleavable protein to cleave CLIP peptide and incubated overnight (>16 hrs) at 4° C. This method yielded at least 80% cleavage and allowed the CLIP peptide to be potentially exchanged with the fluorescently labeled high affinity cit-CII1236-1249 peptide. A batch of […] protein with CLIP cleaved was prepared for multiple experiments and was stable for several months when stored at 4° C.
In this assay, anti-human Fc antibody labeled with Tb-Cryptate probe was used as the donor (commercially available from Cisbio—PAb Anti-human IgG-Tb Cryptate, Cat #61HFCTAB) and high affinity peptide Citrullinated CII (cit-CII) labeled with Alexa 647 fluorophore was utilized as the acceptor. Inhibitors of the exchange of the pre-cleaved CLIP peptide for the high affinity cit-CII1236-1249 peptide onto HLA-DRB1*04:01 caused a decrease in HTRF signal as measured by the ratio of the 665 nm/620 nm emitted signal. Screening compounds were robotically pre-dispensed (150 nL, Hummingbird, DigiLab/CyBio AG) onto black, round bottom, nontreated, 1536-well assay plates (Corning #3939), were incubated with 3 nM HLA-DR4 (with CLIP cleaved) plus 1 nM Human IgG-Tb (anti-Fc-Tb) Antibody for 45 min prior to addition of 40 nM Cit-CII peptide labeled with Alexa-647. The negative control was DMSO plus 1 nM Human IgG-Tb (anti-Fc-Tb) Antibody, incubated for 45 minutes before addition of 40 nM Cit-CII peptide labeled with Alexa-647. The positive control was DMSO plus 3 nM HLA-DR4 (with CLIP cleaved) plus 1 nM Human IgG-Tb (anti-Fc-Tb) Antibody with 40 nM Cit-CII peptide labeled with Alexa-647 added after a 45-minute incubation. Plates were centrifuged at 1000 rpm for 1 minute and then incubated at 37° C., at 90% relative humidity for 90 minutes. After incubation, plates were read on a spectrophotometer, the Pherastar FS (BMG Labtech), in HTRF mode. The HTRF ratio as well as percent inhibition was calculated. Curve fitting and IC50 calculation for dose response data was performed by Microsoft Excel, 3DX (Janssen proprietary software) or Graphpad Prism (Graphpad Software, San Diego, CA). […]

Row | Compound | IC50 [1] | IC50 (HLA-DRB1*0401)
1 | O=C1CCOc2cc(OC(c3ccncc3)c3ccccn3)ccc21 (racemic) [Example 6, (R,S)-7-(Pyridin-2-yl(pyridin-4-yl)methoxy)chroman-4-one] | 1.4 µM | 1.8 µM
2 | N#Cc1ccc(C(Oc2ccc3c(c2)OCCC3=O)c2ccncc2)cc1 (racemic) [Example 10, (R,S)-4-(((4-Oxochroman-7-yl)oxy)(pyridin-4-yl)methyl)benzonitrile] | 8.7 µM | 0.77 µM
3 | Cc1c(OC(c2ccncc2)c2ccc(C(N)=O)cc2)ccc2c1OC(C)(C)CC2=O (racemic) [Example 113, (R,S)-4-(pyridin-4-yl((2,2,8-trimethyl-4-oxochroman-7-yl)oxy)methyl)benzamide] | 1 µM | 0.82 µM
4 | Cc1c(OC2CCCc3cc(C#N)ccc32)ccc2c1OCCC2=O (racemic) [Example 122, (R,S)-5-((8-Methyl-4-oxochroman-7-yl)oxy)-5,6,7,8-tetrahydronaphthalene-2-carbonitrile] | 15 µM | 1.1 µM
5 | Cc1c(OC2CCCc3cc(C(N)=O)ccc32)ccc2c1OCCC2=O (racemic) [Example 123, (R,S)-5-((8-Methyl-4-oxochroman-7-yl)oxy)-5,6,7,8-tetrahydronaphthalene-2-carboxamide] | 15 µM | 0.52 µM
6 | O=C1CCOc2cc(O[C@@H](c3ccncc3)c3cccc(O)c3)ccc21 (single isomer, unassigned) [Example 5b, (*S)-7-((3-Hydroxyphenyl)(pyridin-4-yl)methoxy)chroman-4-one] | 5.2 µM | 14 µM
7 | N#Cc1ccccc1[C@@H](Oc1ccc2c(c1)OCCC2=O)c1ccncc1 (single isomer, unassigned) [Example 7b, (*S)-2-(((4-Oxochroman-7-yl)oxy)(pyridin-4-yl)methyl)benzonitrile] | 5.4 µM | 0.96 µM
8 | NC(=O)c1ccccc1[C@H](Oc1ccc2c(c1)OCCC2=O)c1ccncc1 (single isomer, unassigned) [Example 8a, (*R)-2-(((4-Oxochroman-7-yl)oxy)(pyridin-4-yl)methyl)benzamide] | > 15 µM | 0.68 µM
9 | NC(=O)c1ccccc1[C@@H](Oc1ccc2c(c1)OCCC2=O)c1ccncc1 (single isomer, unassigned) [Example 8b, (*S)-2-(((4-Oxochroman-7-yl)oxy)(pyridin-4-yl)methyl)benzamide] | 6.5 µM | 0.82 µM
10 | N#Cc1ccc([C@H](Oc2ccc3c(c2)OCCC3=O)c2ccncc2)cc1 (single isomer, unassigned) [Example 10b, (*S)-4-(((4-oxochroman-7-yl)oxy)(pyridin-4-yl)methyl)benzonitrile] | > 15 µM | 0.91 µM
11 | COc1cccc([C@H](Oc2ccc3c(c2)OCCC3=O)c2ccncc2)c1 (single isomer, unassigned) [Example 13a, (*R)-7-((3-methoxyphenyl)(pyridin-4-yl)methoxy)chroman-4-one] | > 15 µM | 2 µM
12 | COc1ccccc1[C@@H](Oc1ccc2c(c1)OCCC2=O)c1ccncc1 (single isomer, unassigned) [Example 14b, (*S)-7-((2-Methoxyphenyl)(pyridin-4-yl)methoxy)chroman-4-one] | 11 µM | 1.9 µM
13 | Cc1cc([C@@H](Oc2ccc3c(c2)OCCC3=O)c2ccc(C(N)=O)cc2)ccn1 (single isomer, unassigned) [Example 15b, (*S)-4-((2-Methylpyridin-4-yl)((4-oxochroman-7-yl)oxy)methyl)benzamide] | 8.1 µM | 0.77 µM
14 | O=C1CCOc2cc(O[C@@H](c3ccncc3)c3ccc(OCc4ccccc4)cc3)ccc21 (single isomer, unassigned) [Example 16a, (*R)-7-((4-(benzyloxy)phenyl)(pyridin-4-yl)methoxy)chroman-4-one] | 12 µM | 8.1 µM
15 | O=C1CCOc2cc(O[C@H](c3ccncc3)c3ccc(OCc4ccccc4)cc3)ccc21 (single isomer, unassigned) [Example 16b, 7-((4-(benzyloxy)phenyl)(pyridin-4-yl)methoxy)chroman-4-one] | > 15 µM | 9.9 µM
16 | NC(=O)c1ccc(C(Oc2ccc3c(c2)OCCC3=O)c2ccnc(C(F)(F)F)c2)cc1 (single isomer, unassigned) [Example 18a, (*R)-4-(((4-oxochroman-7-yl)oxy)(2-(trifluoromethyl)pyridin-4-yl)methyl)benzamide] | > 15 µM | 1.4 µM
17 | NC(=O)c1ccc([C@@H](Oc2ccc3c(c2)OCCC3=O)c2ccncc2F)cc1 (single isomer, unassigned) [Example 20a, (*R)-4-((3-fluoropyridin-4-yl)((4-oxochroman-7-yl)oxy)methyl)benzamide] | 6.9 µM | 1.2 µM
18 | NC(=O)c1ccc([C@H](Oc2ccc3c(c2)OCCC3=O)c2ccncc2F)cc1 (single isomer, unassigned) [Example 20b, (*S)-4-((3-fluoropyridin-4-yl)((4-oxochroman-7-yl)oxy)methyl)benzamide] | 6.2 µM | 0.91 µM
19 | CCCc1c(O[C@H](c2ccncc2)c2ccc(C(N)=O)cc2)ccc2c1OCCC2=O (single isomer, unassigned) [Example 80b, (*S)-4-(((4-Oxo-8-propylchroman-7-yl)oxy)(pyridin-4-yl)methyl)benzamide] | – | 0.96 µM
